Each block holds one molecule with its values, some of them ahead of it. Numbered stars: 1 amine (or outer) side, 2 acyl side, 3 side chain; on linkers, the order of the positions; unused ones are H or OH. Bridge positions count the residues as written; N and C are the ends. Square brackets hold non-standard residues; d marks the D form. Peptide text beside a SMILES is read from it. * marks the point of attachment. X5 = O=C(O)CN1CCN(CC(=O)O)CCN(CC(=O)NCCSCc2cc(CSC[C@@H](CO)N[*:2])cc(C[*:1])c2)CCN(CC(=O)O)CC1; X2 = O=C(O)CN1CCN(CC(=O)O)CCN(CC(=O)NCCCOCCOCCOCCCN*)CCN(CC(=O)O)CC1; mXylylene = c1cc(C[*:1])cc(C[*:2])c1; 3Pal = N[C@@H](Cc1cccnc1)C(=O)O; Suc = O=C(CCC(=O)[*:2])[*:1]; 4Amb = NCc1ccc(C(=O)O)cc1; X18 = NCCNCC(CNCCN)C(=O)*; Nle = CCCC[C@H](N)C(=O)O; Octanoyl = CCCCCCCC(=O)*; Hexanoyl = CCCCCC(=O)*; AEEA = NCCOCCOCC(=O)O
Legend:
Human recombinant FAP = biological target: T1, Human recombinant FAP (Homo sapiens, UniProt Q12884); assay: FRET-based FAP protease activity assay; assay type: biochemical; parameters: purchased R&D systems 3715-SE; conditions: pIC50 Category (Activity), FRET substrate, 37° C.
T1 sequence (Q12884 1-760): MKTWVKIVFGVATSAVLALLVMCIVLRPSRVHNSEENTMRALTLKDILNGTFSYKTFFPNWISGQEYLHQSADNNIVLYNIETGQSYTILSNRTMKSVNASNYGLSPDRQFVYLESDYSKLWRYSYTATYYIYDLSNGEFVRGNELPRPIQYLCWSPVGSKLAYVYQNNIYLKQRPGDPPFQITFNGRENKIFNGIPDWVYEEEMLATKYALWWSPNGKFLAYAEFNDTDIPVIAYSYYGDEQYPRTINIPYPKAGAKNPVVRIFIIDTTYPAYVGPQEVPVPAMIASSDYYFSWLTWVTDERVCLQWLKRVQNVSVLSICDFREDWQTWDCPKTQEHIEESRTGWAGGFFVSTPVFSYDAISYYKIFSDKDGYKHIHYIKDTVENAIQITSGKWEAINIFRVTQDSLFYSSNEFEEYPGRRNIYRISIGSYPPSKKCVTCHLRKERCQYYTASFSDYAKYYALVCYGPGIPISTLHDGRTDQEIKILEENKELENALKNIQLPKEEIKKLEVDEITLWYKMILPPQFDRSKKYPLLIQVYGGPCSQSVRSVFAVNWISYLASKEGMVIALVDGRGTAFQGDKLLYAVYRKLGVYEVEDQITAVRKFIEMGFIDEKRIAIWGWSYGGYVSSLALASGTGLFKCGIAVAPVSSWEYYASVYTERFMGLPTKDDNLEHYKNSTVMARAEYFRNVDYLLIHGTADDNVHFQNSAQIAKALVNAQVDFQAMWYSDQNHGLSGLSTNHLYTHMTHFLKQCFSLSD

[1] = biological target: T2, FAP-expressing human WI-38 fibroblasts (Homo sapiens, UniProt Q12884); assay: Competitive FACS binding assay; conditions: pIC50 Category (FACS), competition with 3 nM Cy5-labeled compound, 4° C., 1 hour
T2 construct: FAP-expressing human WI-38 fibroblasts (ECACC) were cultured in EMEM; host or cells: WI-38 human fibroblasts
T2 sequence (Q12884 1-760): T1 sequence (Q12884 1-760)
Method: Cells were analyzed in an Attune NxT flow cytometer. […]

SMILES: CCCCCC(=O)N[C@H]1CSCc2cc(CSCCN)cc(c2)CSC[C@@H](C(=O)O)NC(=O)[C@H](Cc2ccccc2)NC(=O)[C@H](CCC(N)=O)NC(=O)[C@H]([C@@H](C)O)NC(=O)[C@@H]2CCCN2C(=O)[C@@H]2CCCN2C1=O [3BP-4089, Hex-[Cys(tMeBn(H-AET))-Pro-Pro-Thr-Gln-Phe-Cys]-OH]
- IC50 (Human recombinant FAP): 10 to 79.4 nM
- IC50 [1]: 100 to 794 nM

SMILES: CCCCCCCC(=O)N[C@H]1CSCc2cccc(c2)CSC[C@@H](C(=O)N[C@@H](CC(=O)O)C(N)=O)NC(=O)[C@H](Cc2ccccc2)NC(=O)[C@H](CCC(N)=O)NC(=O)[C@H]([C@@H](C)O)NC(=O)[C@@H]2CCCN2C(=O)[C@@H]2CCCN2C1=O [3BP-3417, Oct-[Cys(3MeBn)-Pro-Pro-Thr-Gln-Phe-Cys]-Asp-NH2] (Octanoyl-CPPTQFCD-NH2; linker 1-7 via mXylylene)
- IC50 (Human recombinant FAP; recombinant human FAP): 10 to 79.4 nM
- IC50 ([1]; WI-38 fibroblasts): 10 to 79.4 nM

SMILES: CCCCCC(=O)N[C@H]1CSCc2cc(CSCCNC(=O)CN3CCN(CC(=O)O)CCN(CC(=O)O)CCN(CC(=O)O)CC3)cc(c2)CSC[C@@H](CO)NC(=O)[C@H](Cc2ccccc2)NC(=O)[C@H](CCC(N)=O)NC(=O)[C@H]([C@@H](C)O)NC(=O)[C@@H]2CCCN2C(=O)[C@@H]2CCCN2C1=O [3BP-3767, Hex-[Cys(tMeBn(DOTA-AET))-Pro-Pro-Thr-Gln-Phe-Cysol]] (Hexanoyl-CPPTQF; linker 1-C via X5)
- IC50 (Human recombinant FAP): < 10 nM
- IC50 [1]: < 10 nM

SMILES: CCCCCC(=O)N[C@H]1CSCc2cc(CSCCNC(=O)CCc3ccc(O)c(CN(CCN(CC(=O)O)Cc4cc(CCC(=O)O)ccc4O)CC(=O)O)c3)cc(c2)CSC[C@@H](C(=O)O)NC(=O)[C@H](Cc2ccccc2)NC(=O)[C@H](CCC(N)=O)NC(=O)[C@H]([C@@H](C)O)NC(=O)[C@@H]2CCCN2C(=O)[C@@H]2CCCN2C1=O [3BP-4381, Hex-[Cys-(tMeBn(HBED-AET))-Pro-Pro-Thr-Gln-Phe-Cys]-OH]
- IC50 (Human recombinant FAP): 10 to 79.4 nM
- IC50 [1]: 10 to 79.4 nM

SMILES: CCCCCC(=O)N[C@H]1CSCc2cc(CSCCNC(=O)COCCOCCNC(=O)CN(CCN(CC(=O)O)CC(=O)O)CCN(CC(=O)O)CC(=O)O)cc(c2)CSC[C@@H](C(=O)O)NC(=O)[C@H](Cc2ccccc2)NC(=O)[C@H](CCC(N)=O)NC(=O)[C@H]([C@@H](C)O)NC(=O)[C@@H]2CCCN2C(=O)[C@@H]2CCCN2C1=O [3BP-4224, Hex-[Cys-(tMeBn(DTPA-O2Oc-AET))-Pro-Pro-Thr-Gln-Phe-Cys]-OH]
- IC50 (Human recombinant FAP): 10 to 79.4 nM
- IC50 [1]: 10 to 79.4 nM

SMILES: C[C@@H](O)[C@@H]1NC(=O)[C@@H]2CCCN2C(=O)[C@@H]2CCCN2C(=O)[C@@H](NC(=O)[C@H](Cc2ccccc2)NC(=O)CCC(=O)NCCCOCCOCCOCCCNC(=O)CN2CCN(CC(=O)O)CCN(CC(=O)O)CCN(CC(=O)O)CC2)CSCc2cccc(c2)CSC[C@@H](C(=O)N[C@@H](CC(=O)O)C(=O)N[C@@H](Cc2c[nH]cn2)C(=O)N[C@@H](Cc2ccccc2)C(=O)N[C@@H](CCCNC(=N)N)C(=O)N[C@@H](CC(=O)O)C(N)=O)NC(=O)[C@H](Cc2ccccc2)NC(=O)[C@H](CCC(=O)O)NC1=O [3BP-3171, DOTA-Ttds-Phe-[Cys(3MeBn)-Pro-Pro-Thr-Glu-Phe-Cys]-Asp-His-Phe-Arg-Asp-NH2] ({X2-Suc}-FCPPTEFCDHFRD-NH2; linker 2-8 via mXylylene)
- IC50 (Human recombinant FAP; recombinant human FAP): 10 to 79.4 nM
- IC50 ([1]; WI-38 fibroblasts): 10 to 79.4 nM

SMILES: CCCCCC(=O)N[C@@H]1CSCc2cc(CSCCNC(=O)CN3CCN(CC(=O)O)CCN(CC(=O)O)CCN(CC(=O)O)CC3)cc(c2)CSC[C@@H](C(=O)O)NC(=O)[C@H](Cc2ccccc2)NC(=O)[C@H](CCC(N)=O)NC(=O)[C@H]([C@@H](C)O)NC(=O)[C@@H]2CCCN2C(=O)[C@@H]2CCCN2C1=O [3BP-4109, Hex-[D-Cys-(tMeBn(DOTA-AET))-Pro-Pro-Thr-Gln-Phe-Cys]-OH]
- IC50 (Human recombinant FAP): < 10 nM
- IC50 [1]: < 10 nM

Results, then the molecule that gave them:

- IC50 (Human recombinant FAP; recombinant human FAP): > 1000 nM
- IC50 ([1]; WI-38 fibroblasts): > 1000 nM
SMILES: CCCCCC(=O)N[C@H]1CSCc2cccc(c2)CSC[C@@H](C(N)=O)NC(=O)[C@H](Cc2ccccc2)NC(=O)[C@H](CCC(=O)O)NC(=O)[C@H](C)NC(=O)[C@@H]2CCCN2C(=O)[C@@H]2CCCN2C1=O [3BP-3354, Hex-[Cys(3MeBn)-Pro-Pro-Ala-Glu-Phe-Cys]-NH2] (Hexanoyl-CPPAEFC-NH2; linker 1-7 via mXylylene)

- IC50 (Human recombinant FAP; recombinant human FAP): < 10 nM
- IC50 ([1]; WI-38 fibroblasts): < 10 nM
SMILES: CSCC[C@H](NC(C)=O)C(=O)N[C@H]1CSCc2cccc(c2)CSC[C@@H](C(=O)N[C@@H](CC(=O)O)C(=O)N[C@@H](Cc2c[nH]cn2)C(=O)N[C@@H](Cc2ccccc2)C(=O)N[C@@H](CCCNC(=N)N)C(N)=O)NC(=O)[C@H](Cc2ccccc2)NC(=O)[C@H](CCC(=O)O)NC(=O)[C@H]([C@@H](C)O)NC(=O)[C@@H]2CCCN2C(=O)[C@@H]2CCCN2C1=O [3BP-3200, Ac-Met-[Cys(3MeBn)-Pro-Pro-Thr-Glu-Phe-Cys]-Asp-His-Phe-Arg-NH2] (Ac-MCPPTEFCDHFR-NH2; linker 2-8 via mXylylene)

- IC50 (Human recombinant FAP): 100 to 794 nM
- IC50 [1]: > 1000 nM
SMILES: CCCC[C@H](NC(=O)COCCOCCNC(=O)C(CNCCN)CNCCN)C(=O)N[C@H]1CSCc2cccc(c2)CSC[C@@H](C(=O)O)NC(=O)[C@H](Cc2ccccc2)NC(=O)[C@H](CCC(=O)O)NC(=O)[C@H]([C@@H](C)O)NC(=O)[C@@H]2CCCN2C(=O)[C@@H]2CCCN2C1=O [3BP-4228, N4Ac-O2O-Nle-[Cys-(3MeBn)-Pro-Pro-Thr-Glu-Phe-Cys]-OH] ({X18-AEEA}-[Nle]CPPTEFC-OH; linker 2-8 via mXylylene)

- IC50 (Human recombinant FAP; recombinant human FAP): 10 to 79.4 nM
- IC50 ([1]; WI-38 fibroblasts): 10 to 79.4 nM
SMILES: C[C@@H](O)[C@@H]1NC(=O)[C@@H]2CCCN2C(=O)[C@@H]2CCCN2C(=O)[C@@H](NC(=O)[C@H](CCC(=O)O)NC(=O)CCC(=O)NCCCOCCOCCOCCCNC(=O)CN2CCN(CC(=O)O)CCN(CC(=O)O)CCN(CC(=O)O)CC2)CSCc2cccc(c2)CSC[C@@H](C(=O)N[C@@H](CC(=O)O)C(=O)N[C@@H](Cc2c[nH]cn2)C(=O)N[C@@H](Cc2ccccc2)C(=O)N[C@@H](CCCNC(=N)N)C(=O)N[C@@H](CC(=O)O)C(N)=O)NC(=O)[C@H](Cc2ccccc2)NC(=O)[C@H](CCC(=O)O)NC1=O [3BP-3173, DOTA-Ttds-Glu-[Cys(3MeBn)-Pro-Pro-Thr-Glu-Phe-Cys]-Asp-His-Phe-Arg-Asp-NH2] ({X2-Suc}-ECPPTEFCDHFRD-NH2; linker 2-8 via mXylylene)

- IC50 (Human recombinant FAP; recombinant human FAP): < 10 nM
- IC50 ([1]; WI-38 fibroblasts): 10 to 79.4 nM
SMILES: CCCCCC(=O)N[C@H]1CSCc2cccc(c2)CSC[C@@H](C(=O)NCc2ccc(C(=O)N[C@@H](CCCNC(=N)N)C(N)=O)cc2)NC(=O)[C@H](Cc2ccccc2)NC(=O)[C@H](CCC(=O)O)NC(=O)[C@H]([C@@H](C)O)NC(=O)[C@@H]2CCCN2C(=O)[C@@H]2CCCN2C1=O [3BP-3303, Hex-[Cys(3MeBn)-Pro-Pro-Thr-Glu-Phe-Cys]-Pamb-Arg-NH2] (Hexanoyl-CPPTEFC[4Amb]R-NH2; linker 1-7 via mXylylene)

- IC50 (Human recombinant FAP; recombinant human FAP): < 10 nM
- IC50 ([1]; WI-38 fibroblasts): < 10 nM
SMILES: CSCC[C@H](NC(C)=O)C(=O)N[C@H]1CSCc2cccc(c2)CSC[C@@H](C(=O)N[C@@H](CC(=O)O)C(=O)N[C@@H](Cc2c[nH]cn2)C(=O)N[C@@H](Cc2cccnc2)C(=O)N[C@@H](CCCNC(=N)N)C(=O)N[C@@H](CC(=O)O)C(N)=O)NC(=O)[C@H](Cc2ccccc2)NC(=O)[C@H](CCC(=O)O)NC(=O)[C@H]([C@@H](C)O)NC(=O)[C@@H]2CCCN2C(=O)[C@@H]2CCCN2C1=O [3BP-3192, Ac-Met-[Cys(3MeBn)-Pro-Pro-Thr-Glu-Phe-Cys]-Asp-His-Mpa-Arg-Asp-NH2] (Ac-MCPPTEFCDH[3Pal]RD-NH2; linker 2-8 via mXylylene)

- IC50 (Human recombinant FAP; recombinant human FAP): 10 to 79.4 nM
- IC50 ([1]; WI-38 fibroblasts): 10 to 79.4 nM
SMILES: CSCC[C@H](NC(C)=O)C(=O)N[C@H]1CSCc2cccc(c2)CSC[C@H](C(=O)N[C@@H](CC(=O)O)C(=O)N[C@@H](Cc2c[nH]cn2)C(=O)N[C@@H](Cc2ccccc2)C(=O)N[C@@H](CCCNC(=N)N)C(=O)N[C@@H](CC(=O)O)C(N)=O)NC(=O)[C@H](Cc2ccccc2)NC(=O)[C@H](CCC(=O)O)NC(=O)[C@H]([C@@H](C)O)NC(=O)[C@@H]2CCCN2C(=O)[C@@H]2CCCN2C1=O [3BP-3182, Ac-Met-[Cys(3MeBn)-Pro-Pro-Thr-Glu-Phe-cys]-Asp-His-Phe-Arg-Asp-NH2] (Ac-MCPPTEF[dC]DHFRD-NH2; linker 2-8 via mXylylene)

- IC50 (Human recombinant FAP; recombinant human FAP): 100 to 794 nM
- IC50 ([1]; WI-38 fibroblasts): > 1000 nM
SMILES: CCCCCC(=O)N[C@H]1CSCc2cccc(c2)CSC[C@@H](C(N)=O)NC(=O)[C@H](C)NC(=O)[C@H](CCC(=O)O)NC(=O)[C@H]([C@@H](C)O)NC(=O)[C@@H]2CCCN2C(=O)[C@@H]2CCCN2C1=O [3BP-3350, Hex-[Cys(3MeBn)-Pro-Pro-Thr-Glu-Ala-Cys]-NH2] (Hexanoyl-CPPTEAC-NH2; linker 1-7 via mXylylene)
